Measurements as given in PMC8708666, “Screening of Self-Assembling of Collagen IV Fragments into Stable Structures Potentially Useful in Regenerative Medicine” (International Journal of Molecular Sciences, 2021).

Tests used:
[1] = CD study of self-organization into structures mimicking the collagen triple helix; format: physicochemical; parameters: key to Ability to Mimic the Structure of the Collagen Helix: +++: peptides that were able to mimic the spatial structure of collagen at 4 °C, 20 °C and 40 °C; +: a fragment mimicking the spatial structure of collagen only at 4 °C; fragments that do not have the ability to aggregate into stable three-dimensional structures; conditions: CD at 4 °C, 20 °C and 40 °C after 24 h incubation; for ability to self-organize into structures mimicking the triple helix (CD): water, 0.1 mg/mL
From the text: The next stage of the research was to check whether peptides 1–33 and 2.1–2.4 have the ability to self-organize, enabling the formation of structures mimicking the structure of the triple helix characteristic of collagens, including the COL domain of type IV collagen. The method of circular dichroism was used in the research, allowing both the secondary and tertiary structure of peptides and proteins to be determined. This method can also be successfully used to observe the process of protein self-organization depending on the temperature or pH. […] A characteristic feature of triple helix collagens is the maximum at about 220 nm and the minimum at about 190–200 nm. Based on literature data, the CD spectrum corresponding to the triple helix characteristic of collagens as a function of temperature was simulated (Figure 9j). The main factors stabilizing the collagen triple helix are the hydrogen bonds between the hydrogen atom of the amino group and the oxygen atom of the carbonyl group. These are relatively weak bonds, and their stability depends, inter alia, on temperature. Therefore, the stability of the collagen triple helix changes with the change of this factor. Due to the fact that the studied collagen fragments can be potentially used in regenerative medicine, it was necessary to check the stability of the structure in the temperature range as close as possible to physiological conditions. Therefore, the tests were performed at 4 °C, 20 °C and 40 °C after incubation for 24 h. The incubation process was to enable the self-assembly to form structures that mimic the triple helix of collagen. […] In the spectra, the presence of a characteristic maximum at a wavelength of about 220 nm and a minimum at about 190–200 nm was observed. However, the most important fact is that these peptides formed stable three-dimensional structures even at 40 °C.
The CD spectra were recorded using a Jasco J-1500 instrument (Jasco, Cracow, Poland) and quartz cuvettes with 1 mm optical path lengths. The measurements were acquired in the range of 190–270 nm at temperatures of 4 °C, 20 °C and 40 °C by taking points every 5 nm, with a scan rate of 100 nm per min, an integration time of 1 s, and a bandwidth of 4 nm. The samples were prepared in MiliQ purity water with a final concentration of 0.1 mg/mL. Samples before CD measurements were incubated for 24 h. at 4 °C, 20 °C and 40 °C using a Lauda thermostat.

[2] = Microscopic examination of peptide aggregates stained with Congo Red; format: physicochemical; conditions: phosphate buffer pH 7.2, 37.5 °C, 7 days
Procedure: In addition to CD studies, microscopic studies of peptides 1–33 and 2.1–2.4 stained with Congo Red were also performed. This method of visualization of peptide aggregates is a typical method of studying β-sheet structures in amyloid-type fibers.
In order to initiate aggregation, peptides were dissolved in a phosphate buffer solution of pH 7.2 and a concentration of 250 μM (approx. […] of peptide per 1 mL of solution) and incubated at 37.5 °C for 7 days.
Congo Red solution with a concentration of […] was prepared by dissolving the dye (Sigma-Aldrich) (17.42 mg; 0.025 mmol) in phosphate buffer (pH = 7.2) (10 mL) with the following composition: 100 mM NaH2PO4/Na2HPO4, 137 mM NaCl and 10% EtOH. Ethyl alcohol was added to the buffer to counteract the formation of dye micelles. A sample for microscopic analysis (peptide solution) was centrifuged at 12,000–14,000 rpm to precipitate. In the next step, the solution was decanted and the residue was washed three times with water to remove excess dye. Then, a suspension of the peptide in water was applied to a microscope slide. The samples were dried in a stream of air at room temperature and analyzed under polarized light.
The obtained structures were analyzed using a Delta Optical Genetic Pro (Warsaw, Poland) light microscope.

α1β1 integrin (ITGα1β1) = α1β1 integrin (ITGα1β1) (Homo sapiens, UniProt P05556+P56199); assay: MST determination of Kd for labeled α1β1 integrin and collagen IV fragments; format: binding
α1β1 integrin (ITGα1β1), sequence (P56199 29-1141 limits assumed): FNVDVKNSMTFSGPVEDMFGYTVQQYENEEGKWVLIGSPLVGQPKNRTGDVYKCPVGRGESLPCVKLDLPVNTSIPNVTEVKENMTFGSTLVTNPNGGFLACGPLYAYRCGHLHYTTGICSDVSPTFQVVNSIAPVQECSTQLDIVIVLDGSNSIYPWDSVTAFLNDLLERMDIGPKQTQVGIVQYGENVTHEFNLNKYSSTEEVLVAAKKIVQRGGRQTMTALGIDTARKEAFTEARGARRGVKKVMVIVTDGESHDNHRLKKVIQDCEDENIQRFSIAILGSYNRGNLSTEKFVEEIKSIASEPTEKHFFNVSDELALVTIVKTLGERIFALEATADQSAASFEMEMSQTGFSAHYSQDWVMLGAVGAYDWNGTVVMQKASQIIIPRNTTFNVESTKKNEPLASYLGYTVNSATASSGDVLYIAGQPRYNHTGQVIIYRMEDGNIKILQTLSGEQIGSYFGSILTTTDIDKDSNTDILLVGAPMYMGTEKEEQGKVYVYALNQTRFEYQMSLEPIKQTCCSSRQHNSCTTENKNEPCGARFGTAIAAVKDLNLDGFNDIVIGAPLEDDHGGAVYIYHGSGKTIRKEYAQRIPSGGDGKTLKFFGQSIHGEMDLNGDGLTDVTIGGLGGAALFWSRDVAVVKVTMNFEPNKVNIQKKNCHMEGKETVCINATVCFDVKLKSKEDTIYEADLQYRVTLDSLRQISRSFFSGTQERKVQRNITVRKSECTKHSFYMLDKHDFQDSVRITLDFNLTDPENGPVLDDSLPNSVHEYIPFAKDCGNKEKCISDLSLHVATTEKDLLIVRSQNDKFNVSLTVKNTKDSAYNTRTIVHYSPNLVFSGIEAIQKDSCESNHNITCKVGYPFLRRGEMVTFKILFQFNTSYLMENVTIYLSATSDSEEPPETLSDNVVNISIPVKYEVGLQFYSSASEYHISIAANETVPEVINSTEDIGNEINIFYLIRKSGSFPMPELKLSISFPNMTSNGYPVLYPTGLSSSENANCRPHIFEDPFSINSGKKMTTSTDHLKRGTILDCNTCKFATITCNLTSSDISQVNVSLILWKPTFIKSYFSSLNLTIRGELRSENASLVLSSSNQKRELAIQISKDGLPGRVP
α1β1 integrin (ITGα1β1), sequence (P05556 21-728 limits assumed): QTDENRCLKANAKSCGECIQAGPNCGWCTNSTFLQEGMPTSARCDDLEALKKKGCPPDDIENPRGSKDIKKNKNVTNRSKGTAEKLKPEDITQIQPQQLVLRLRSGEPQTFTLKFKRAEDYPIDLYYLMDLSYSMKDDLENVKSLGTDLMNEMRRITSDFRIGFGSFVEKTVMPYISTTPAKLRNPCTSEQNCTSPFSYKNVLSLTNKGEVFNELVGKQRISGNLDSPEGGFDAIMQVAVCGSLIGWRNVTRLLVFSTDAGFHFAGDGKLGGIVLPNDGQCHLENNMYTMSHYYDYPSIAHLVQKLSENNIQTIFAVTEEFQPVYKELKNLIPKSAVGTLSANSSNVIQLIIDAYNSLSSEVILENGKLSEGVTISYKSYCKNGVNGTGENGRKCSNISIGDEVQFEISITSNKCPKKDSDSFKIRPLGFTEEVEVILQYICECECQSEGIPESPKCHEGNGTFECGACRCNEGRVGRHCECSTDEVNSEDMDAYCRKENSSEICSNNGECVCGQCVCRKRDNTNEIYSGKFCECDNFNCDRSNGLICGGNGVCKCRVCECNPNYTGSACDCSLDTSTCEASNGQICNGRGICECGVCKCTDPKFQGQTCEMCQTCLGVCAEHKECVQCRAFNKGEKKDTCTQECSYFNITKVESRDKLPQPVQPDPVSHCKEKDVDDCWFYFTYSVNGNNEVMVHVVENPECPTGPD
Procedure: The tests were performed using the Microscale Thermophoresis (MST) technique [86]. […] For MST experiment His-tagged ITGα1β1 was labeled using a fluorescent dye, which enable a site-specific and stable noncovalent fluorescence labeling of polyhistidine-tagged proteins. The concentrations of labeled ITGα1β1 were kept constant at 25 nM, whereas the peptides were used as titration ligands with increasing concentrations.
The α1β1 integrin concentration was kept constant (25 nM), while the non-labeled binding partner collagen IV peptides were used at increasing concentrations as the titration ligand. The MST measurement was performed at 80% or 100% (for peptide 4) LED power and medium (40%) MST power. An MST-on time 4 s was used for analysis and a Kd (µM ± µM confidence) was derived for these interactions (n ≥ 3 independent measurements, error bars represent standard deviation).
• Preparation of Materials for MST Analysis • (1) ITGα1β1—a solution with a concentration of 9.3 µM was prepared. For this, 50 µL of sterile PBS (filtered through a 0.22 µm filter) was added to the protein. […] The fluorescent dye OG488 (ex = 498 nm, ex = 526 nm) provide an efficient method for site-specific and stable noncovalent fluorescence labeling of polyhistidine-tagged proteins. • (3) A 0.05% Tween20 solution in PBS (PBST) was prepared. • Testing the Affinity of the Dye to the Protein […]

Substance	ability to self-organize into structures mimicking the triple helix (CD) [1]	structure of aggregates stained with Congo Red [2]	Kd (α1β1 integrin (ITGα1β1); labeled His-tagged ITGα1β1 25 nM, 22 °C, MST-on time 4 s, Kd ± confidence)	ability to bind to ITGα1β1 (in words) (α1β1 integrin (ITGα1β1); labeled ITGα1β1 25 nM)	Ability to Mimic the Structure of the Collagen Helix [1]
^641PGQQGLPGSK^650 [Peptide 12]	only at 4 °C	fibrous structures	–	–	–
^1101IGNIGFPGNK^1110 [Peptide 26]	have the ability to self-organize to form structures that mimic the structure of the triple helix	only amorphous structures	–	–	–
^311GPPGQQGKKG^320 [Peptide 7]	only at 4 °C	fibrous structures	–	–	–
^921LKGIPGSTGK^930 [Peptide 21]	not found	fibrous structures resembling amyloid structures	–	–	–
^721LPGFPGLPGK^730 [Peptide 15]	have the ability to self-organize to form structures that mimic the structure of the triple helix	only amorphous structures	no binding	no binding	+++
^841PGKKGTRGKK^850 [Peptide 18]	only at 4 °C	fibrous structures	–	–	–
^1521HYARRNDKSY^1530 [Peptide 32]	not found	fibrous structures resembling amyloid structures	–	–	–
^1211PGIGIGAPGK^1220 [Peptide 27]	not found	fibrous structures resembling amyloid structures	–	–	–
^1311KGMRGEPGFM^1320 [Peptide 29]	not found	fibrous structures resembling amyloid structures	–	–	–
^891LSGPKGEKGS^900 [Peptide 20]	not found	fibrous structures resembling amyloid structures	–	–	–
^251GFPKGKKGSK^260 [Peptide 6]	have the ability to self-organize to form structures that mimic the structure of the triple helix	only amorphous structures	–	–	–
^711GFPGPRGEKG^720 [Peptide 14]	have the ability to self-organize to form structures that mimic the structure of the triple helix	only amorphous structures	–	–	–
^951PVGIPSPRRP^960 [Peptide 22]	not found	fibrous structures resembling amyloid structures	–	–	–
^671PGFPGPKGSR^680 [Peptide 13]	only at 4 °C	fibrous structures	–	–	–
^541KGKKGEPILS^550 [Peptide 11]	not found	fibrous structures resembling amyloid structures	–	–	–
^1451MRVGYTLVKH^1460 [Peptide 31]	not found	fibrous structures resembling amyloid structures	–	–	–
^1221PGLRGQKGDR^1230 [Peptide 28]	only at 4 °C	fibrous structures	–	–	–
^781PGLKGVHGKP^790 [Peptide 16]	not found	fibrous structures resembling amyloid structures	–	–	–
^1453VGYTLVKHSQSE^1464 [Peptide 2.3]	only at 4 °C	fibrous structures	–	–	–
^1520CHYARRNDKSYW^1531 [Peptide 2.4]	only at 4 °C	fibrous structures	–	–	–
^23EKSYGKPCGGQDC^35 [Peptide 2.1]	not found	fibrous structures resembling amyloid structures	–	–	–
^1446MPGQSMRVGYTL^1457 [Peptide 2.2]	only at 4 °C	fibrous structures	–	–	–
^1001GAPGLPGIIK^1010 [Peptide 24]	not found	fibrous structures resembling amyloid structures	–	–	–
^471LKGIKGDSGF^480 [Peptide 9]	not found	fibrous structures resembling amyloid structures	–	–	–
^81PGLLGPYGPK^90 [Peptide 3]	not found	fibrous structures resembling amyloid structures	–	–	–
^41CFPEKGARGR^50 [Peptide 2]	have the ability to self-organize to form structures that mimic the structure of the triple helix	only amorphous structures	–	–	–
^1661AGQLHTRVSR^1670 [Peptide 33]	–	fibrous structures	–	–	–
^961MSNLWLKGDK^970 [Peptide 23]	not found	fibrous structures resembling amyloid structures	–	–	–
^21AGEKSYGKPC^30 [Peptide 1]	not found	fibrous structures resembling amyloid structures	–	–	–
^821GIKGKSGLPG^830 [Peptide 17]	only at 4 °C	fibrous structures	–	–	–
